According to patent US8637528B2, “Use of PDE7 inhibitors for the treatment of movement disorders” (Omeros Corporation, priority 2007, dated 2014):
pIC50: −log10 of the molar value. “Also recorded” adds a separate entry of the source.

What was measured:
[1] = system: MPTP-treated mice; assay: inked paw stride length in the MPTP mouse model of Parkinson's disease, initial study (Example 5); type: in vivo; details: for effect on stride length of saline-treated mice, in words: 20 minutes after dosing
Method: Adult male C57BL/6J; retired breeders, aged between 7-9 months (Jackson Laboratory, Bar Harbor, Me., USA), singly housed.
(§1) Mice received 2 subcutaneous injections of methylphenyltetrahydropyridine (“MPTP”) at a dose of 15 mg/kg (free base) with a 10-12 hour interval between injections. Control mice (sham lesion groups) were administered saline instead of MPTP.
Seven days after MPTP or saline administration, OM69 was administered to mice. For each dose, a 100× stock of OM69 compound was prepared in 100% DMSO and subsequently diluted 100× into phosphate buffered saline (PBS). Then 100 μL of this 1× solution was administered via intraperitoneal (IP) injection.
(§2) Prior to injection with MPTP or saline, animals were pre-trained to walk across a clean sheet of paper into their home cage without stopping. For assessment of stride length, animals had their forepaws placed in black ink and the length of forepaw steps during normal walking (in a straight line only) was measured. The animals were immediately put back into their home cage upon completion of the task. Stride length was determined by measuring the distance between each step on the same side of the body, measuring from the middle toe of the first step to the heel of the second step. An average of at least four clear steps was calculated.
Retired breeder male mice (12-15 per group, ˜48-60 animals total) were treated with either saline or 2×15 mg/kg MPTP (12 saline; […]) to induce a Parkinsonian state (neurochemical loss of dopamine with corresponding behavioral deficits).
On day eight stride length was measured again, and the control value for stride length was derived from the stride length of saline-treated animals. Following this measurement the first treatments with L-dopa (5 mg/kg) or OM69 (0.1 mg/kg) were administered on day eight, as shown in FIG. 8. Stride length was then measured for each animal 20 minutes after dosing. […] Dosing with the treatments shown in FIG. 8 was carried out on successive days, with stride length measured 20 minutes after each dosing. As mentioned above, it was previously determined from pharmacokinetic studies that OM69 is washed out of the mice within 12 hours after dosing, so the stride length test carried out 20 minutes after dosing was believed to be measuring the effect of only the compounds administered on the day of treatment.
On day nine Group 1 animals were treated with L-dopa (1 mg/kg), and Group 2 animals were treated with OM69 (0.01 mg/kg). On day ten the treatment groups were crossed over, and Group 1 animals were treated with OM69 (0.01 mg/kg), and Group 2 animals were treated with L-dopa (1 mg/kg).
As further shown in FIG. 8, for the combination studies, all the mice in Group 1 and Group 2 were combined. On day 11 following MPTP administration, all the animals in Group 1 and Group 2 (n=9) were treated with the combination of L-dopa (1 mg/kg) and OM69 (0.01 mg/kg), with the stride length test carried out 20 minutes after dosing. On day 12 following MPTP administration, all the animals in Group 1 and Group 2 (n=9) were treated with the combination of L-dopa (1 mg/kg) and OM69 (0.03 mg/kg) with the stride length test carried out 20 minutes after dosing. In these combination studies carried out on day 11 and day 12, the average stride length data from two of the nine animals was not scorable because these two animals either ran rather than walking at a normal speed, or they kept starting and stopping rather than walking continuously. Therefore, these two animals were excluded, and only the remaining seven animals (n=7) were scored for the combination studies.
To assess and compare the effects of OM69 and L-dopa at these doses, data from mice with equivalent dosing was pooled. Thus, the average stride length for animals treated with L-dopa (1 mg/kg) was determined using measurements obtained from all nine animals. […]

[2] = system: MPTP-treated mice; assay: inked paw stride length in the MPTP mouse model of Parkinson's disease, panel of PDE7 inhibitors (Example 7); type: in vivo
Method: Adult male C57BL/6J; retired breeders, aged between 7-9 months Charles River Laboratories, Wilmington, Mass.), singly housed. Three groups of 35 mice were tested in series one week apart.
as §1
as §2, with “calculated. The schedule for this experiment was as follows:” for “calculated.”
Because of the wide variation in aqueous solubility among these compounds, a number of different formulations were required. L-dopa was administered in 100 μl of phosphate buffered saline. For animals treated with L-dopa, the dopa decarboxylase inhibitor benserazide (100 μL of a 12.5 mg/kg solution) was administered 15 minutes prior to treatment with L-dopa in order to minimize the destruction of L-dopa in the peripheral blood. […] Therefore, the treatment effects observed are due solely to the PDE7 inhibitory compounds themselves. […] This phenomenon of “overshoot” has also been observed with L-dopa in MPTP-treated mice in which lower doses ameliorate hypoactivity while higher doses induce dyskinesias or uncontrolled movements (Lundblad M. et al., Exp Neurol.194(1):66-75 (2005); Pearce R. K. et al., Mov Disord. 10(6):731-40 (1995); Fredriksson, A. et al, Pharmacol-Toxicol. 67(4): 295-301 (1990)).
Retired breeder male mice were treated with either saline or 2×15 mg/kg MPTP to induce a Parkinsonian state (neurochemical loss of dopamine with corresponding behavioral deficits). On day one baseline stride length was measured and then mice were treated with either MPTP or with saline as a control. On day eight stride length was measured again, and the control value for stride length was derived from the stride length of saline-treated animals. The animals were then divided randomly into treatment groups. Compound OM955 (compound 3) was tested at 0.1 mg/kg, at 0.5 mg/kg, and at 0.1 mg/kg in combination with 1 mg/kg L-dopa.

[3] = target: PDE7A (Homo sapiens (Human), UniProt Q13946); assay: PDE7 phosphodiesterase scintillation proximity assay (SPA), PDE7A; type: biochemical; details: for Fold Selectivity, PDE7A: IC50 against PDE7A divided by IC50 against PDE7A; for selectivity for inhibition of the PDE7A enzyme as compared to the other PDEs: versus PDE1B, 2A, 3A, 4A, 5A, 8A, 9A, 10A, 11A
Sequence of PDE7A (Q13946 whole entry, looked up): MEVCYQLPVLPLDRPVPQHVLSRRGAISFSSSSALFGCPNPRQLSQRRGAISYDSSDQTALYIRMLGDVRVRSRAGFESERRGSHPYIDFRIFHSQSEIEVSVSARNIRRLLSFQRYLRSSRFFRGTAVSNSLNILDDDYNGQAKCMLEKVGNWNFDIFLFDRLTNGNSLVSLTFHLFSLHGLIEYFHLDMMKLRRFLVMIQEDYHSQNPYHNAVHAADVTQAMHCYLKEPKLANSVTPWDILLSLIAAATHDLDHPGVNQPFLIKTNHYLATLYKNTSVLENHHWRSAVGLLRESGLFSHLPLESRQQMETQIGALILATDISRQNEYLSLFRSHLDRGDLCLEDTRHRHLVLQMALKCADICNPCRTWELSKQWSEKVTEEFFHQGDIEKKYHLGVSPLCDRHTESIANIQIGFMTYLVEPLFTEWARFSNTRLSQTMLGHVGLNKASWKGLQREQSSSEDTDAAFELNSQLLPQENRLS

[4] = target: PDE11A (Homo sapiens (Human), UniProt Q9HCR9); assay: PDE selectivity SPA assay, PDE11A; type: biochemical; details: IC50 against PDE11A divided by IC50 against PDE7A
Sequence of PDE11A (Q9HCR9 whole entry): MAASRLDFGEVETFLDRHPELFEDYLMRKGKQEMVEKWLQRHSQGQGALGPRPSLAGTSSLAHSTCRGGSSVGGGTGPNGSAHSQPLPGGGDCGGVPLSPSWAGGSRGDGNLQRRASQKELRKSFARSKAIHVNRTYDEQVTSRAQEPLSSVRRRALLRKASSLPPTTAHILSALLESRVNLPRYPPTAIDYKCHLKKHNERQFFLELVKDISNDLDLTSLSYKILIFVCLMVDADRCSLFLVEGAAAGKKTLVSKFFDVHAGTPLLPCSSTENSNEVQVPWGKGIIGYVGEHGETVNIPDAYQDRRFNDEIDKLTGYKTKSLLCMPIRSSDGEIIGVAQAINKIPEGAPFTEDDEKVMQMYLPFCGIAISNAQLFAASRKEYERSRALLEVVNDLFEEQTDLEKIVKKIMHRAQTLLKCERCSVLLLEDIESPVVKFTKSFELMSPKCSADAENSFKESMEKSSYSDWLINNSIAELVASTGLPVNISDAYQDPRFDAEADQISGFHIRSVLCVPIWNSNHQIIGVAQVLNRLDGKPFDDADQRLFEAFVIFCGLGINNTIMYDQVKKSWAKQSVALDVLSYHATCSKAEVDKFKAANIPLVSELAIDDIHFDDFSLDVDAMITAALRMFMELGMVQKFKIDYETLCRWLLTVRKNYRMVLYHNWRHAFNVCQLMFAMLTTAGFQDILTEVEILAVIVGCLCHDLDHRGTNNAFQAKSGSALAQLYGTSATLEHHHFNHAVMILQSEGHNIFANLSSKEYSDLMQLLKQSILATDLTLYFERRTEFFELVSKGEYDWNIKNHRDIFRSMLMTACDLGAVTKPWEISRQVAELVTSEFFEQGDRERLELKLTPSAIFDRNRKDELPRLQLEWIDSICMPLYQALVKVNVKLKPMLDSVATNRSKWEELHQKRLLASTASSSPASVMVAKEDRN

| Structure (SMILES) | effect on stride length, in words ([1]; MPTP-treated mice, L-dopa 1 mg/kg) | effect on stride length, in words ([1]; MPTP-treated mice, L-dopa 5 mg/kg) | dose dependence of the effect on stride length, in words ([1]; MPTP-treated mice, L-dopa 1 and 5 mg/kg) | effect on stride length of saline-treated mice, in words ([1]; L-dopa 5 mg/kg) | effect on stride length, in words ([2]; L-dopa 1 mg/kg alone, 20 minutes after administration) | pIC50 [3] | potency of PDE7A inhibition, in words [3] | selectivity between PDE7A and PDE7B, in words [3] | Fold Selectivity, PDE7A [3] | selectivity for inhibition of the PDE7A enzyme as compared to the other PDEs [3] | Fold Selectivity for PDE7A versus PDE11A [4] | effect on stride length, in words ([1]; MPTP-treated mice, OM69 0.01 mg/kg) | effect on stride length, in words ([1]; MPTP-treated mice, OM69 0.1 mg/kg IP) | L-dopa dose with the same effect on stride length, relative to the OM69 dose ([1]; OM69 0.1 mg/kg IP versus L-dopa 5 mg/kg) | effect on stride length of saline-treated mice, in words ([1]; OM69 0.1 mg/kg) | effect on stride length, in words ([2]; OM955 0.1 mg/kg alone, 20 minutes after administration) | effect on stride length, in words ([2]; OM955 0.5 mg/kg, 20 minutes (and one hour) after injection) |
| --- | --- | --- | --- | --- | --- | --- | --- | --- | --- | --- | --- | --- | --- | --- | --- | --- | --- |
| N[C@@H](Cc1ccc(O)c(O)c1)C(=O)O [L-dopa, levodopa, reference compound] | only a small effect | fully restore the stride length to that seen without MPTP treatment | increases their stride length in a dose-dependent manner | Neither L-dopa (5 mg/kg) nor OM69 (0.1 mg/kg) altered the stride length of saline-treated mice | do not increase stride length when administered alone; also recorded: does not increase stride length in MPTP mice to a significant level | – | – | – | – | – | – | – | – | – | – | – | – |
| COc1cc(N)ccc1-c1cc2c(c(=O)[nH]1)C(C1CCCCC1)N=[N+]2C (centres unmarked) [OM69] | – | – | – | – | – | 8.89 | high potency | little or no selectivity | 1 fold | greater than 1000 fold | 7070 fold | only a small effect | fully restore the stride length to that seen without MPTP treatment | 50 fold | Neither L-dopa (5 mg/kg) nor OM69 (0.1 mg/kg) altered the stride length of saline-treated mice | – | – |
| O=C1Nc2c(Cl)ccc(OCCO)c2C2(CCCCC2)N1 [OM955] | – | – | – | – | – | 7.29 | moderate potency | little or no selectivity | 1 fold | greater than 100 fold | >192 fold | – | – | – | – | do not increase stride length when administered alone; also recorded: does not increase stride length in MPTP mice to a significant level | statistically significant improvement in the stride length; also recorded: fully restored to that of unlesioned animals; also recorded: full recovery of baseline stride length |
